According to US9464060B2, “Compounds” (TAKEDA PHARMACEUTICAL COMPANY LIMITED, priority 2013, dated 2016):

Experiments:
human LPA1 receptors = human LPA1 receptors (Homo sapiens (Human), UniProt Q92633); assay: In vitro LPA1 receptor assay (LPA-driven intracellular calcium release, FLIPR); type: cell-based; conditions: RH7777 cells expressing human LPA1 receptors; LPA at EC80
Protocol: In Vitro LPA1 Receptor Assay
(§1) Engagement of the LPA1 receptor by its ligand, oleoyl-L-α-lysophosphatidic acid (LPA), leads to the release of intracellular stores of calcium into the cytoplasm mediated through a Gq-driven increase in inositol triphosphate (IP3) levels. Gq is a heterotrimeric G protein subunit that activates phospholipase C.
The ability of test compounds to prevent LPA-driven intracellular release of stored calcium from RH7777 cells expressing human LPA1 receptors was assayed by stimulating the cells with LPA in the presence of various test compounds to measure the test compounds' antagonism, i.e. activity in vitro.
(§2) Approximately 10,000 cells in normal culture medium (Dulbecco's Modified Eagle Media, 10% Foetal Calf Serum) were dispensed per assay well in a black clear bottom collagen coated 384 well plate (Beckton Dickinson). Cells were allowed to settle for thirty minutes at room temperature before being incubated overnight at 37° C., 5% CO2. Sixteen to twenty hours after dispensing, the cells were loaded with a calcium-sensitive fluorescent dye by replacing the culture medium with assay buffer (1× Hanks buffered saline, 25 mM HEPES, 0.1% w/v fatty acid free BSA (bovine serum albumin), pH7.4) containing 1.25 mM probenecid and 1× Calcium 5 Reagent (Molecular Devices). Cells were incubated at 37° C. for one hour to allow for dye uptake.
(§3) To test for antagonist activity, test compounds at a final concentration range between 0.32 nM-10 μM (diluted in assay buffer) were added to the assay wells and allowed to incubate for twenty five minutes. […] Ligand-dependent changes in intracellular calcium levels were determined by measuring changes in fluorescence of the dye over […] following excitation over […].

LPA5 receptor = LPA5 receptor (Homo sapiens (Human), UniProt Q9H1C0); assay: In vitro LPA5 receptor assay (LPA-driven intracellular calcium release, FLIPR); type: cell-based; conditions: RH7777 cells expressing human LPA5 receptors; LPA at EC90
Sequence of LPA5 receptor (Q9H1C0 whole entry): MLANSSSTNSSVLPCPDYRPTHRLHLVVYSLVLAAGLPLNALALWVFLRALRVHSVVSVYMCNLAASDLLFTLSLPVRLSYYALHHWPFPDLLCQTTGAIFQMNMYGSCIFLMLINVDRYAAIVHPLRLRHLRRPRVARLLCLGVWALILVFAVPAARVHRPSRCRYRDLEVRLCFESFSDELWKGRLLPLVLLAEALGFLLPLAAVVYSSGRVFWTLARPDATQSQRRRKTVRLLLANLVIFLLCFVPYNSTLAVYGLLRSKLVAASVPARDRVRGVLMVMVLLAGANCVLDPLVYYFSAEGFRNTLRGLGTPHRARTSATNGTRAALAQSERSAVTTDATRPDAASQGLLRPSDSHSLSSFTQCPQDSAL
Protocol: In Vitro LPA5 Receptor Assay
as §1, with “LPA5” for “LPA1”
The ability of test compounds to prevent LPA-driven intracellular release of stored calcium from RH7777 cells expressing human LPA5 receptors was assayed by stimulating the cells with LPA in the presence of various test compounds to measure the test compounds'antagonism, i.e. activity in vitro.
as §2, with “(Minimal Essential” for “(Dulbecco's Modified Eagle”, “poly-D-lysine” for “collagen”, “(Corning).” for “(Beckton Dickinson).”
as §3, with “fifteen” for “twenty five”

Sequence of human LPA1 receptors (Q92633 whole entry): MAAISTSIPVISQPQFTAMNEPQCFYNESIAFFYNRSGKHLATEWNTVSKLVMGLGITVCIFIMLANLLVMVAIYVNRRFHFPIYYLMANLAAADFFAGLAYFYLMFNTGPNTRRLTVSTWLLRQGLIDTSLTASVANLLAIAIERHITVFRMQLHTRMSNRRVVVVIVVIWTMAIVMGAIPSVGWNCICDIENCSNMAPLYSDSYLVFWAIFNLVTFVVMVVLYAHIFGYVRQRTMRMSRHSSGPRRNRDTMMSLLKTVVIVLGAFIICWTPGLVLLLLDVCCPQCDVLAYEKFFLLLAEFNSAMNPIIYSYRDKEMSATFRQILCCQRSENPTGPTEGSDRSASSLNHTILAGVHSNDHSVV

| SMILES | IC50 (human LPA1 receptors) [nM] | IC50 (LPA5 receptor) [nM] |
| --- | --- | --- |
| O=C(O)c1ccc(CN(CC(F)(F)F)C(=O)c2ccc(Oc3ccccc3F)cc2)cc1 [Example 3, 4-((4-(2-Fluorophenoxy)-N-(2,2,2-trifluoroethyl)benzamido)-methyl)benzoic acid] | 35 | 43 |
| CCCN(Cc1ccc(C(=O)O)cc1)C(=O)c1ccc(Oc2ccc(F)cc2OC)cc1 [Example 80, 4-((4-(4-Fluoro-2-methoxyphenoxy)-N-propylbenzamido)methyl)benzoic acid] | 110 | 45 |
| CCCCN(Cc1ccc(C(=O)O)cc1)C(=O)c1ccc(Oc2ccccc2OC)cc1 [Example 65, 4-((N-Butyl-4-(2-methoxyphenoxy)benzamido)methyl)benzoic acid] | 5 | 4 |
| O=C(O)c1ccc(CN(CC2CC2)C(=O)c2ccc(Oc3ccccc3F)cn2)cc1 [Example 77, 4-((N-(Cyclopropylmethyl)-5-(2-fluorophenoxy)picolinamido)methyl)benzoic acid] | 86 | 74 |
| O=C(O)c1ccc(CN(CCC(F)(F)F)C(=O)c2ccc(Oc3ccccc3F)cc2)cc1 [Example 71, 4-((4-(2-Fluorophenoxy)-N-(3,3,3-trifluoropropyl)benzamido)methyl)benzoic acid] | 59 | 83 |
| CCN(Cc1ccc(C(=O)O)cc1)C(=O)c1ccc(Oc2ccccc2C)cc1 [Example 73, 4-((N-Ethyl-4-(o-tolyloxy)benzamido)methyl)benzoic acid] | 120 | 890 |
| O=C(O)c1ccc(CN(CC(F)(F)F)C(=O)c2ccc(Oc3ccccc3Cl)cc2)cc1 [Example 72, 4-((4-(2-Chlorophenoxy)-N-(2,2,2-trifluoroethyl)benzamido)methyl)benzoic acid] | 29 | 42 |
| CCCCN(Cc1ccc(C(=O)O)cc1)C(=O)c1ccc(Oc2ccccc2F)cc1 [Example 75, 4-((N-Butyl-4-(2-fluorophenoxy)benzamido)methyl)benzoic acid] | 31 | 22 |
| COc1ccc(F)cc1Oc1ccc(C(=O)N(Cc2ccc(C(=O)O)cc2)CC2CC2)cc1 [Example 79, 4-((N-(Cyclopropylmethyl)-4-(5-fluoro-2-methoxyphenoxy)benzamido)methyl)benzoic acid] | 94 | 68 |
| CCN(Cc1ccc(C(=O)O)cc1)C(=O)c1ccc(Oc2ccccc2Cl)cc1 [Example 76, 4-((4-(2-Chlorophenoxy)-N-ethylbenzamido)methyl)benzoic acid] | 130 | 140 |
| COc1ccccc1Oc1cnc(C(=O)N(Cc2ccc(C(=O)O)cc2)CC2CC2)nc1 [Example 84, 4-((N-(Cyclopropylmethyl)-5-(2-methoxyphenoxy)pyrimidine-2-carboxamido)methyl)benzoic acid] | 170 | 91 |
| Cc1ccccc1Oc1ccc(C(=O)N(Cc2ccc(C(=O)O)cc2)CC2CC2)cc1 [Example 22, 4-((N-(Cyclopropylmethyl)-4-(o-tolyloxy)benzamido)methyl)benzoic acid] | 30 | 24 |
| CCCN(Cc1ccc(C(=O)O)cc1)C(=O)c1ccc(Oc2ccccc2F)cc1 [Example 60, 4-((4-(2-Fluorophenoxy)-N-propylbenzamido)methyl)benzoic acid] | 33 | 60 |
| O=C(O)c1ccc(CN(CCC2CC2)C(=O)c2ccc(Oc3c(F)cccc3F)cc2)cc1 [Example 38, 4-((N-(2-Cyclopropylethyl)-4-(2,6-difluorophenoxy)benzamido)-methyl)benzoic acid] | 36 | 140 |
| O=C(O)c1ccc(CN(CC2CC2)C(=O)c2ncc(Oc3ccccc3F)cn2)cc1 [Example 83, 4-((N-(Cyclopropylmethyl)-5-(2-fluorophenoxy)pyrimidine-2-carboxamido)methyl)benzoic acid] | 540 | 350 |

Second part, the molecule after the results:

| IC50 (human LPA1 receptors) [nM] | IC50 (LPA5 receptor) [nM] | SMILES |
| --- | --- | --- |
| 12 | 8 | COc1ccccc1Oc1ccc(C(=O)N(Cc2ccc(C(=O)O)cc2)CC2CC2)nc1 [Example 69, 4-((N-(Cyclopropylmethyl)-5-(2-methoxyphenoxy)-picolinamido)methyl)benzoic acid] |
| 9 | 7 | COc1ccccc1Oc1ccc(C(=O)N(CCC(F)(F)F)Cc2ccc(C(=O)O)cc2)cc1 [Example 64, 4-((4-(2-Methoxyphenoxy)-N-(3,3,3-trifluoropropyl)-benzamido)methyl)benzoic acid] |
| 13 | 10 | COc1cc(F)ccc1Oc1ccc(C(=O)N(Cc2ccc(C(=O)O)cc2)CC2CC2)cc1 [Example 68, 4-((N-(Cyclopropylmethyl)-4-(4-fluoro-2-methoxyphenoxy)benzamido)methyl)benzoic acid] |
| 22 | 11 | Cc1cccc(C)c1Oc1ccc(C(=O)N(CCc2ccccc2)Cc2ccc(C(=O)O)cc2)cc1 [Example 47, 4-((4-(2,6-Dimethylphenoxy)-N-phenethylbenzamido)methyl)benzoic acid] |
| 7 | 5 | COc1ccccc1Oc1ccc(C(=O)N(Cc2ccc(C(=O)O)cc2)CC2CC2)c(F)c1 [Example 66, 4-((N-(Cyclopropylmethyl)-2-fluoro-4-(2-methoxyphenoxy)benzamido)methyl)benzoic acid] |
| 1 | 2 | O=C(O)c1ccc(CN(C[C@@H]2C[C@H]2c2ccccc2)C(=O)c2ccc(Oc3ccccc3F)cc2)cc1 (relative stereo) [Example 18, 4-((4-(2-Fluorophenoxy)-N-((trans-2-phenylcyclopropyl)methyl)-benzamido)methyl)benzoic acid] |
| 25 | 28 | O=C(O)c1ccc(CN(CC2CC2)C(=O)c2ccc(Oc3c(F)cccc3F)cc2)cc1 [Example 37, 4-((N-(Cyclopropylmethyl)-4-(2,6-difluorophenoxy)benzamido)-methyl)benzoic acid] |
| 24 | 24 | O=C(O)c1ccc(CN(CCc2ccccc2)C(=O)c2ccc(Oc3ccccc3Cl)cc2)cc1 [Example 36, 4-((4-(2-Chlorophenoxy)-N-phenethylbenzamido)methyl)benzoic acid] |
| 0.4 | 1 | O=C(O)c1ccc(CN(CCCc2cccc(F)c2)C(=O)c2ccc(Oc3ccccc3F)cc2)cc1 [Example 17, 4-((4-(2-Fluorophenoxy)-N-(3-(3-fluorophenyl)propyl)benzamido)methyl)benzoic acid] |
| 12 | 12 | COc1ccccc1Oc1ccc(C(=O)N(Cc2ccc(C(=O)O)cc2)CC(C)C)cc1 [Example 30, 4-((N-Isobutyl-4-(2-methoxyphenoxy)benzamido)methyl)benzoic acid] |
| 5 | 9 | CCCN(Cc1ccc(C(=O)O)cc1)C(=O)c1ccc(Oc2ccccc2OC)cc1 [Example 62, 4-((4-(2-Methoxyphenoxy)-N-propylbenzamido)methyl)benzoic acid] |
| 7 | 9 | O=C(O)c1ccc(CN(C[C@@H](O)Cc2ccccc2)C(=O)c2ccc(Oc3ccccc3F)cc2)cc1 [Example 19, (S)-4-((4-(2-Fluorophenoxy)-N-(2-hydroxy-3-phenylpropyl)benzamido)methyl)benzoic acid] |
| 7 | 10 | COc1ccccc1Oc1ccc(C(=O)N(Cc2ccc(C(=O)O)cc2)CC(C)(F)F)cc1 [Example 63, 4-((N-(2,2-Difluoropropyl)-4-(2-methoxyphenoxy)-benzamido)methyl)benzoic acid] |
| 27 | 26 | O=C(O)c1ccc(CN(CC2CC2)C(=O)c2ccc(Oc3ccccc3F)cc2F)cc1 [Example 54, 4-((N-(Cyclopropylmethyl)-2-fluoro-4-(2-fluorophenoxy)-benzamido)methyl)benzoic acid] |
| 14 | 29 | Cc1ccccc1Oc1ccc(C(=O)N(CCc2ccccc2)Cc2ccc(C(=O)O)cc2)cc1 [Example 25, 4-((N-Phenethyl-4-(o-tolyloxy)benzamido)methyl)benzoic acid] |
